Our source for the EC50 values is article PMC10017821, “Polycystic kidney disease 2-like 1 channel contributes to the bitter aftertaste perception of quinine” (Scientific Reports, 2023).

The experiment has as its target T1, PKD2L1 (polycystic kidney disease 2-like 1 channel) (Mus musculus, UniProt A2A259).
T1 construct: mouse PKD2L1 in pCINeo/IRES-GFP, transiently expressed in HEK293T cells; no PKD1L3 co-expression mentioned; homotetramer (known biology)
T1 sequence (A2A259 1-760): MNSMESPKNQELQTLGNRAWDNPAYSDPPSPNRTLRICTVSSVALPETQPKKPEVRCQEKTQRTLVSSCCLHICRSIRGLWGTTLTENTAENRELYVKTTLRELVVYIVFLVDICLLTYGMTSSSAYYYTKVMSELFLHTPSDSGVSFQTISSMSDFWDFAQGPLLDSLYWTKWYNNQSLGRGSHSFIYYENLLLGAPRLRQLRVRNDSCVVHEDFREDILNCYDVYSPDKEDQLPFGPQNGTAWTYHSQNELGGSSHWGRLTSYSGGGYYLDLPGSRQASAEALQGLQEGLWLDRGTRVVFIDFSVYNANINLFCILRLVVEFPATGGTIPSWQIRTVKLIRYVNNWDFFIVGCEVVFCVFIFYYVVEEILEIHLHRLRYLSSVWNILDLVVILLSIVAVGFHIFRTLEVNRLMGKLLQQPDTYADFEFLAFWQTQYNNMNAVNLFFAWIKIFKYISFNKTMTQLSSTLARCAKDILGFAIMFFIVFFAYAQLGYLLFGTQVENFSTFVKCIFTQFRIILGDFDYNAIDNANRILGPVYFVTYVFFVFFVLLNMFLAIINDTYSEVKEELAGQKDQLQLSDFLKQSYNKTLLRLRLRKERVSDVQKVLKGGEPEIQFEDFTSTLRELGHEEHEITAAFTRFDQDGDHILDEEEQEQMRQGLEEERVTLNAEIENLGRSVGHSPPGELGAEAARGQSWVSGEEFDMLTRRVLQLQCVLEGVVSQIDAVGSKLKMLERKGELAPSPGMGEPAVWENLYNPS
The experiment can be described thus: whole-cell patch clamp, channel activity (NPo) at -60 mV. Format: cell-based.

A word on the EC50: it is the concentration at which the effect is half-maximal. A higher EC50 goes with lower potency in that assay. For `C=C[C@H]1C[N@@]2CC[C@H]1C[C@H]2[C@H](O)c1ccnc2ccc(OC)cc12` [quinine], the EC50 is 33 µM.
